The structures appear in SMILES notation. A value given as a limit tells only on which side of the number the result lay.

The test system of data set [1] is Human immunodeficiency virus 1. Nature of the data set: Anti-HIV-1 activity against HIV1 IIIB infected in human H9 cells assessed as in p24 antigen production by sandwich ELISA. The class given is functional, organism-based. The following applies: Human immunodeficiency virus 1, IIIB.
The subject of the next data set is HEK293T. Kind of data set: Inhibition of Ebola virus pseudoparticle GP HR2 domain-mediated viral entry into human 293T cells at 1 uM incubated for 72 hrs by Bright-Glo reagent based assay relative to control. It is filed as cell-based. The note with it: Ebolavirus.
Another data set relates to Hepatitis C virus. Nature of the data set: Antiviral activity against HCV pseudoparticle infected in Huh-7 cells assessed as inhibition of viral entry pretreated for 30 mins with cells followed by viral infection for 4 hrs and subsequent compound wash out and measured after 72 hrs by Bright-Glo reagent based luciferase assay. The class given is functional, organism-based, Hepacivirus hominis.

For data set [2], the system named is Human immunodeficiency virus 1. Nature of the data set: Anti-HIV-1 activity against HIV1 IIIB/LAI infected in human CEM 4 cells assessed as reduction in virus-indued cytopathic effect treated for 1 hr with cells followed by viral infection and measured after 5 days. It is filed as functional, organism-based. The following applies: Human immunodeficiency virus 1, IIIB/LAI. For orientation: Cytopathic effects are the visible damage that an infection or toxin causes in cultured cells.

Data set [3] can be described thus: Inhibition of Zaire Ebola virus pseudoparticle GP HR2 domain-mediated virus-host fusion in human 293T cells incubated for 72 hrs by Bright-Glo reagent based assay. It is filed as cell-based, Zaire ebolavirus. The note with it: hek293t.
A short description of data set [4]: Inhibition of Zaire Ebola virus pseudoparticle GP HR2 domain-mediated virus-host fusion in human A549 cells incubated for 72 hrs by Bright-Glo reagent based assay. The class given is cell-based, Zaire ebolavirus.
Data set [5] has as its system Human immunodeficiency virus 1. Nature of the data set: Anti-HIV-1 activity against HIV1 NL4-3 infected in human HeLa expressing CD4/CCR5/beta-gal assessed as inhibition of syncytium formation incubated for 2 days by MAGI assay. It is filed as functional, organism-based. The note with it: Human immunodeficiency virus 1, NL4-3, HeLa, 48 h.
Data set [6] in a line: Binding affinity to EBOV envelope glycoprotein HR2 domain by surface plasmon resonance. Also on record: species or system Ebolavirus. Background: SPR reads the build-up and loss of mass on a sensor chip optically.
A short description of data set [7]: Selectivity index, ratio of CC50 for human MRC5 cells to EC50 for HCoV-229E infected in human MRC5 cells. It is filed as toxicity, cell-based. The note with it: MRC5 cells (CC50) and HCoV-229E-infected MRC5 cells (EC50).
Another data set deals with Human coronavirus 229E. Kind of data set: Antiviral activity against HCoV-229E infected in human MRC5 cells incubated for 2 hrs by XTT method. The class given is functional, organism-based. The following applies: MRC5, 2 h. Background: Formazan colour is commonly taken as a measure of viable cells.
A short description of data set [8]: Binding affinity to EBOV envelope glycoprotein HR2 domain assessed as reduction in HR1-HR2 interaction by measuring Kd for HR1-HR2 affinity by surface plasmon resonance (reference value: 1 uM). Details: species or system Ebolavirus.
Data set [9] in a line: Antiviral activity against Ebola virus Makona infected in human HeLa cells pretreated for 2 hrs followed by viral infection for 48 hrs by Alexa Fluor 488 staining based assay. It is filed as functional, cell-based. The following applies: Zaire ebolavirus.
The nature of data set [10]: Antiviral activity against Ebola virus Makona infected in human foreskin fibroblast pretreated for 2 hrs followed by viral infection for 48 hrs by Alexa Fluor 488 staining based assay. The class given is functional, cell-based. The note with it: Zaire ebolavirus.
Data set [11] relates to Human immunodeficiency virus 1. Kind of data set: Antiviral activity against HIV-1 harboring V307A mutant. The class given is functional, organism-based.
Data set [12] relates to Human immunodeficiency virus 1. Nature of the data set: Antiviral activity against HIV-1 NL4-3. It is filed as functional, organism-based. The following applies: Human immunodeficiency virus 1, NL4-3.
The nature of data set [13]: Aqueous solubility of compound. It is filed as physicochemical.
The target of a further data set is Albumin (Homo sapiens, UniProt P02768). Kind of data set: Protein binding in human serum albumin. The class given is ADME. The note with it: read-out: PB.
Sequence of Albumin (P02768 whole entry): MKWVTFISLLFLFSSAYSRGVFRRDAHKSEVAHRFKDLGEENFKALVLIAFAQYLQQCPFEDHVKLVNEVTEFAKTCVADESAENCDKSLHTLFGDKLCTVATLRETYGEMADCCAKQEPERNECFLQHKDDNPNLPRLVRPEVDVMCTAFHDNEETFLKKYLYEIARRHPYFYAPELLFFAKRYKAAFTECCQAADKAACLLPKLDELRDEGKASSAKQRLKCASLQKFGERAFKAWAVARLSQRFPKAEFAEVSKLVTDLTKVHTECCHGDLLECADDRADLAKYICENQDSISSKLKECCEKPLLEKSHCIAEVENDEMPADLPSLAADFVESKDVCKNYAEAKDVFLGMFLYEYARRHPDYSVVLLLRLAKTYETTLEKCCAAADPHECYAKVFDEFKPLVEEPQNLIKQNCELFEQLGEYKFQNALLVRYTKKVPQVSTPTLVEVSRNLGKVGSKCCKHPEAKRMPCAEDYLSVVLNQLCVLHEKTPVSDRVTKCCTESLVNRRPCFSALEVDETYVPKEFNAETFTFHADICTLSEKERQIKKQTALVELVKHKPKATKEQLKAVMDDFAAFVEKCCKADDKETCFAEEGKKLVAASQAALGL

`C=C(C)[C@@H]1CC[C@]2(C(=O)NCCCCCCCC(=O)N[C@@H](CC(C)C)[C@@H](O)CC(=O)O)CC[C@]3(C)[C@H](CC[C@@H]4[C@@]5(C)CC[C@H](O)C(C)(C)[C@@H]5CC[C@]43C)[C@@H]12`: the IC50 (commonly the point on the concentration scale where inhibition reaches its midpoint) in [1] was 30 nM. Take `CC(=O)OC[C@H]1O[C@@H](NC(=O)[C@]23CCC(C)(C)C[C@H]2C2=CC[C@@H]4[C@@]5(C)CC[C@H](O)C(C)(C)[C@@H]5CC[C@@]4(C)[C@]2(C)C[C@H]3O)[C@@H](OC(C)=O)[C@@H](OC(C)=O)[C@@H]1OC(C)=O`: the inhibition (commonly the relative decrease from the control value, in per cent) in the data set on HEK293T was 17%. For the compound `CC1(C)CC[C@]2(C(=O)O)CC[C@]3(C)C(=CC[C@@H]4[C@@]5(C)CC[C@H](O)C(C)(C)[C@@H]5CC[C@]43C)[C@@H]2C1` [OLEANOLIC_ACID], the IC50 with Hepatitis C virus worked out at 10 µM. The inhibition in the data set with HEK293T was 1%. With `CC1(C)CC[C@]2(C(=O)N[C@@H]3O[C@H](CO)[C@@H](O)[C@H](O)[C@@H]3O)[C@H](O)C[C@]3(C)C(=CC[C@@H]4[C@@]5(C)CC[C@H](O)C(C)(C)[C@@H]5CC[C@]43C)[C@@H]2C1`, the inhibition in the data set on HEK293T was found to be 3%. As to `C=C(C)[C@@H]1CC[C@]2(C(=O)NCCCCCCCCCCC(=O)O)CC[C@]3(C)[C@H](CC[C@@H]4[C@@]5(C)CC[C@H](O)C(C)(C)[C@@H]5CC[C@]43C)[C@@H]12`, the IC50 in data set [2] is 230 nM.

Regarding `CC1(C)CCC2C(=O)C[C@]3(C)C(=CC[C@@H]4[C@@]5(C)CCC(=O)C(C)(C)[C@@H]5CC[C@]43C)[C@@H]2C1` (stereo partly drawn), the IC50 in data set [3] and in [4] was 1350 nM throughout. The inhibition in the data set with HEK293T is 52%. Take `CC1(C)CC[C@]2(C(=O)N[C@@H]3O[C@H](CO)[C@@H](O)[C@H](O)[C@@H]3O)CC[C@]3(C)C(=CC[C@@H]4[C@@]5(C)CC[C@H](O)C(C)(C)[C@@H]5CC[C@]43C)[C@@H]2C1`: the inhibition in the data set with HEK293T is -5%.

In the case of `CC1(C)CC[C@]2(C(=O)N[C@@H]3O[C@H](CO)[C@H](O)[C@H](O)[C@H]3O)[C@H](O)C[C@]3(C)C(=CC[C@@H]4[C@@]5(C)CC[C@H](O)C(C)(C)[C@@H]5CC[C@]43C)[C@@H]2C1`, the inhibition with HEK293T turned out to be 16%. In the case of `CC1(C)CC[C@]2(C(=O)O)[C@H](O)C[C@]3(C)C(=CC[C@@H]4[C@@]5(C)CC[C@H](O)C(C)(C)[C@@H]5CC[C@]43C)[C@@H]2C1`, the inhibition in the data set with HEK293T was determined as 2%. For `CC(C)C[C@H](NC(=O)CCCCCCCNC(=O)[C@]12CC[C@@H](C(C)C)[C@@H]1[C@H]1CC[C@@H]3[C@@]4(C)CC[C@H](O)C(C)(C)[C@@H]4CC[C@@]3(C)[C@]1(C)CC2)[C@H](O)CC(=O)O`, the EC50 (usually the concentration needed to bring the measured effect to its halfway point) in [5] amounted to 330 nM. For `CC1(C)CC[C@]2(C(=O)O)CC[C@]3(C)C(=CC[C@@H]4[C@@]5(C)CCC(=O)C(C)(C)[C@@H]5CC[C@]43C)[C@@H]2C1`, the inhibition with HEK293T amounted to 25%. `CC1(C)CC[C@]2(C(=O)N[C@@H]3O[C@H](CO)[C@H](O)[C@H](O)[C@H]3O)CC[C@]3(C)C(=CC[C@@H]4[C@@]5(C)CCC(=O)C(C)(C)[C@@H]5CC[C@]43C)[C@@H]2C1`: the inhibition in the data set with HEK293T came out at 7%. On to `CC(=O)OC[C@H]1O[C@@H](NC(=O)[C@]23CCC(C)(C)C[C@H]2C2=CC[C@@H]4[C@@]5(C)CC[C@H](O)C(C)(C)[C@@H]5CC[C@@]4(C)[C@]2(C)CC3)[C@@H](OC(C)=O)[C@@H](OC(C)=O)[C@@H]1OC(C)=O`, for which, in the data set with HEK293T, the inhibition is -4%. On to `C#CCN(CCCC1(C)N=N1)C(=O)[C@]12CCC(C)(C)C[C@H]1C1=CC[C@@H]3[C@@]4(C)CCC(=O)C(C)(C)[C@@H]4CC[C@@]3(C)[C@]1(C)CC2=O`, for which the Kd (commonly the free concentration of one partner at which half of the binding sites on the other are occupied at equilibrium, for simple one-to-one binding) in data set [6] came out at 16.8 µM. On to `CC1(C)CC[C@]2(C(=O)N[C@@H]3O[C@H](CO)[C@H](O)[C@H](O)[C@H]3O)CC[C@]3(C)C(=CC[C@@H]4[C@@]5(C)CC[C@H](O)C(C)(C)[C@@H]5CC[C@]43C)[C@@H]2C1`, for which the inhibition in the data set on HEK293T was determined as 16%. `C[C@H]1O[C@@](O)(O[C@H]2CC[C@@]3(C)[C@@H](CC[C@]4(C)[C@@H]3C=CC3=C5CC(C)(C)CC[C@]5(CO)[C@H](O)C[C@]34C)[C@]2(C)CO)[C@H](O)[C@@H](O[C@@H]2O[C@H](CO)[C@@H](O)[C@H](O)[C@H]2O)[C@H]1O`: the selectivity ratio in [7] was found to be 222. In addition, the midpoint of inhibition with Human coronavirus 229E, the IC50, lay at 1700 nM. As to `CC(=O)OC[C@H]1O[C@@H](NC(=O)[C@]23CCC(C)(C)C[C@H]2C2=CC[C@@H]4[C@@]5(C)CC[C@H](O)C(C)(C)[C@@H]5CC[C@@]4(C)[C@]2(C)C[C@H]3O)[C@H](OC(C)=O)[C@@H](OC(C)=O)[C@H]1OC(C)=O`, in the data set on HEK293T, the inhibition was 22%. Consider `CC1(C)CC[C@]2(C(=O)N[C@@H]3O[C@H](CO)[C@H](O)[C@H](O)[C@H]3O)C(=O)C[C@]3(C)C(=CC[C@@H]4[C@@]5(C)CCC(=O)C(C)(C)[C@@H]5CC[C@]43C)[C@@H]2C1`, for which the inhibition in the data set on HEK293T is 6%. Consider `CC(=O)OC[C@H]1O[C@@H](NC(=O)[C@]23CCC(C)(C)C[C@H]2C2=CC[C@@H]4[C@@]5(C)CCC(=O)C(C)(C)[C@@H]5CC[C@@]4(C)[C@]2(C)CC3=O)[C@H](OC(C)=O)[C@@H](OC(C)=O)[C@H]1OC(C)=O`, for which the Kd in [6] came out at 5.4 µM; in [8], 23.4 µM. In addition, the IC50 in data set [3] and in [4] was 59.2 nM each time. In addition, the EC50 in [9] came out at 460 nM; in [10] it was 990 nM. Also, the inhibition in the data set on HEK293T came out at 99%. For the compound `C=C(C)[C@@H]1CC[C@]2(C(=O)NCCCCCCCC(=O)N[C@@H](CC(C)C)[C@H](O)CC(=O)O)CC[C@]3(C)[C@H](CC[C@@H]4[C@@]5(C)CC[C@H](O)C(C)(C)[C@@H]5CC[C@]43C)[C@@H]12`, the EC50 in data set [5] turned out to be 400 nM.

In the case of `CC(C)C1=C2[C@H]3CC[C@@H]4[C@@]5(C)CC[C@H](OC(=O)CC(C)(C)C(=O)O)C(C)(C)[C@@H]5CC[C@@]4(C)[C@]3(C)CC[C@@]2([C@@H](O)CN(CCN(C)C)Cc2ccc(Cl)cc2)CC1=O` [GSK2838232], the IC50 in data set [11] was determined as 0.71 nM; in data set [12] it was 0.81 nM. Regarding `CC(=O)OC[C@H]1O[C@@H](NC(=O)[C@]23CCC(C)(C)C[C@H]2C2=CC[C@@H]4[C@@]5(C)CCC(=O)C(C)(C)[C@@H]5CC[C@@]4(C)[C@]2(C)CC3)[C@H](OC(C)=O)[C@@H](OC(C)=O)[C@H]1OC(C)=O`, the IC50 in data set [3] and in data set [4] was 467 nM throughout. For the same compound, the inhibition in the data set on HEK293T was 93%. Turning to `C=C(C)[C@@H]1CC[C@]2(C(=O)O)CC[C@]3(C)[C@H](CC[C@@H]4[C@@]5(C)CC[C@H](OC(=O)CC(C)(C)C(=O)O)C(C)(C)[C@@H]5CC[C@]43C)[C@@H]12` [BEVIRIMAT], the solubility (as a rule, how much of the substance goes into solution per volume) in data set [13] is under 1 µg/mL. Moreover, at Albumin, the fraction unbound was under 0.01. Regarding `CC(=O)OC[C@H]1O[C@@H](NC(=O)[C@]23CCC(C)(C)C[C@H]2C2=CC[C@@H]4[C@@]5(C)CC[C@H](O)C(C)(C)[C@@H]5CC[C@@]4(C)[C@]2(C)CC3)[C@H](OC(C)=O)[C@@H](OC(C)=O)[C@H]1OC(C)=O`, the inhibition in the data set with HEK293T amounted to 32%.

These data come from ChEMBL document CHEMBL4706626, “Triterpenoid-Mediated Inhibition of Virus-Host Interaction: Is Now the Time for Discovering Viral Entry/Release Inhibitors from Nature?” (J Med Chem, 2020).
